Experimental data from PubChem BioAssay AID1963438 (Molecular Pharmacology Branch, DTP, NCI, 2024).

Test system: NCI-H510 multicellular tumor spheroid growth, % test/control
Assay: Anticancer human tumor NCI-H510 cell line growth inhibition [Asc];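 note: spheroids exposed to agents for 7 days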;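 for viability, T/C: 100% = DMSO vehicle control wells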
Conditions: for IC50: curve of first compound; for viability, T/C: stronger effect = lower value
Summary of the method: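 Complex spheroids combining tumor cells with HUVEC endothelial cells and human MSCs, at 37 degrees C, 5% CO2; agents tested alone or combined, half-log dilutions from at or near clinical Cmax, or 10 microM if Cmax unknown.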

[1] = second compound 0.1 µM, first compound 0.00316 µM
[2] = second compound 0.1 µM, first compound 0.01 µM
[3] = second compound 0.1 µM, first compound 0.0316 µM
[4] = second compound 0.1 µM, first compound 0.1 µM
[5] = second compound 0.1 µM, first compound 0.316 µM
[6] = second compound 0.1 µM, first compound 1 µM
[7] = second compound 0.316 µM, first compound 0.00316 µM
[8] = second compound 0.316 µM, first compound 0.01 µM
[9] = second compound 0.316 µM, first compound 0.0316 µM
[10] = second compound 0.316 µM, first compound 0.1 µM
[11] = second compound 0.316 µM, first compound 0.316 µM
[12] = second compound 0.316 µM, first compound 1 µM
[13] = second compound 1 µM, first compound 0.00316 µM
[14] = second compound 1 µM, first compound 0.01 µM
[15] = second compound 1 µM, first compound 0.0316 µM
[16] = second compound 1 µM, first compound 0.1 µM
[17] = second compound 1 µM, first compound 0.316 µM
[18] = second compound 1 µM, first compound 1 µM
[19] = second compound 3.16 µM, first compound 0.00316 µM
[20] = second compound 3.16 µM, first compound 0.01 µM
[21] = second compound 3.16 µM, first compound 0.0316 µM
[22] = second compound 3.16 µM, first compound 0.1 µM
[23] = second compound 3.16 µM, first compound 0.316 µM
[24] = second compound 3.16 µM, first compound 1 µM
[25] = second compound 10 µM, first compound 0.00316 µM
[26] = second compound 10 µM, first compound 0.01 µM
[27] = second compound 10 µM, first compound 0.0316 µM
[28] = second compound 10 µM, first compound 0.1 µM
[29] = second compound 10 µM, first compound 0.316 µM
[30] = second compound 10 µM, first compound 1 µM

Row | Compound | IC50 (second compound 0.1 µM) | IC50 (second compound 0.316 µM) | IC50 (second compound 1 µM) | IC50 (second compound 3.16 µM) | IC50 (second compound 10 µM) | viability, T/C [1] | viability, T/C [2] | viability, T/C [3] | viability, T/C [4] | viability, T/C [7] | viability, T/C [8] | viability, T/C [9] | viability, T/C [10] | viability, T/C [13] | viability, T/C [14] | viability, T/C [15] | viability, T/C [16] | viability, T/C [19] | viability, T/C [20] | viability, T/C [21] | further results
1 | CCN1CCN(Cc2ccc(Nc3ncc(F)c(-c4cc(F)c5nc(C)n(C(C)C)c5c4)n3)nc2)CC1 + Cc1c(S(C)(=O)=O)c(-c2cc(F)cc(N3CCN(c4ccc(NS(=O)(=O)c5ccc(NC(CCN6CCC(C(=O)OCCCP(=O)(O)O)CC6)CSc6ccccc6)c(S(=O)(=O)C(F)(F)F)c5)cc4)CC3)c2)c(-c2ccc(Cl)cc2)n1C(C)C | > 1000 nM | > 1000 nM | 651 nM | 640 nM | 408 nM | 112% | 91.2% | 98% | 75.1% | 104% | 94.8% | 102% | 108% | 98.4% | 90.7% | 76.2% | 74.3% | 69.6% | 93% | 107% | viability, T/C [5]: 86.1%; viability, T/C [6]: 103%; viability, T/C [11]: 88.3%; viability, T/C [12]: 87.8%; viability, T/C [17]: 74.9%; viability, T/C [18]: 38.2%; viability, T/C [22]: 112%; viability, T/C [23]: 61.2%; viability, T/C [24]: 42.9%; viability, T/C [25]: 104%; viability, T/C [26]: 102%; viability, T/C [27]: 78.2%; viability, T/C [28]: 90.4%; viability, T/C [29]: 56.9%; viability, T/C [30]: 18.8%
2 | Cn1ncnc1[C@H]1c2n[nH]c(=O)c3cc(F)cc(c23)N[C@@H]1c1ccc(F)cc1 + Cc1c(S(C)(=O)=O)c(-c2cc(F)cc(N3CCN(c4ccc(NS(=O)(=O)c5ccc(NC(CCN6CCC(C(=O)OCCCP(=O)(O)O)CC6)CSc6ccccc6)c(S(=O)(=O)C(F)(F)F)c5)cc4)CC3)c2)c(-c2ccc(Cl)cc2)n1C(C)C | 8.46 nM | 9.32 nM | 4.76 nM | 6.9 nM | 5 nM | 58.5% | 58.2% | 9.67% | 7.11% | 101% | 47.3% | 5.08% | 5.01% | 68.7% | 16.2% | 2.54% | 2.95% | 92.3% | 31.1% | 12.2% | viability, T/C (second compound 0.1 µM, first compound 0.000316 µM): 88%; viability, T/C (second compound 0.1 µM, first compound 0.001 µM): 101%; viability, T/C (second compound 0.316 µM, first compound 0.000316 µM): 106%; viability, T/C (second compound 0.316 µM, first compound 0.001 µM): 70.3%; viability, T/C (second compound 1 µM, first compound 0.000316 µM): 96.2%; viability, T/C (second compound 1 µM, first compound 0.001 µM): 91.8%; viability, T/C (second compound 3.16 µM, first compound 0.000316 µM): 96.9%; viability, T/C (second compound 3.16 µM, first compound 0.001 µM): 79.8%; viability, T/C [22]: 2.55%; viability, T/C (second compound 10 µM, first compound 0.000316 µM): 92.6%; viability, T/C (second compound 10 µM, first compound 0.001 µM): 88.9%; viability, T/C [25]: 81.9%; viability, T/C [26]: 1.81%; viability, T/C [27]: 1.16%; viability, T/C [28]: 1.64%
3 | O=C(c1ccc(F)c(F)c1Nc1ccc(I)cc1F)N1CC(O)([C@@H]2CCCCN2)C1 + Cc1c(S(C)(=O)=O)c(-c2cc(F)cc(N3CCN(c4ccc(NS(=O)(=O)c5ccc(NC(CCN6CCC(C(=O)OCCCP(=O)(O)O)CC6)CSc6ccccc6)c(S(=O)(=O)C(F)(F)F)c5)cc4)CC3)c2)c(-c2ccc(Cl)cc2)n1C(C)C | > 1000 nM | > 1000 nM | > 1000 nM | > 1000 nM | > 1000 nM | 113% | 107% | 115% | 96.9% | 124% | 104% | 113% | 88.7% | 99.7% | 115% | 126% | 89.8% | 107% | 88.1% | 108% | viability, T/C [5]: 90%; viability, T/C [6]: 87.4%; viability, T/C [11]: 58.7%; viability, T/C [12]: 83%; viability, T/C [17]: 86.9%; viability, T/C [18]: 91.7%; viability, T/C [22]: 104%; viability, T/C [23]: 81.3%; viability, T/C [24]: 81.4%; viability, T/C [25]: 74.7%; viability, T/C [26]: 105%; viability, T/C [27]: 96.1%; viability, T/C [28]: 105%; viability, T/C [29]: 78.3%; viability, T/C [30]: 64.3%
